Measured values reported in patent US7211573B2, “Malonamide derivatives” (Hoffmann-La Roche Inc., priority 2004, dated 2007).

melting point [°C]	SMILES
107	Cc1cccc2c1OC[C@H](NC(=O)C(C)C(=O)NCC(F)(F)C(F)(F)F)C(=O)N2C (stereo partly drawn) [Example 10b, N-((S)-4,9-Dimethyl-8-oxo-6,7,8,9-tetrahydro-5-oxa-9-aza-benzocyclohepten-7-yl)-2-methyl-N′-(2,2,3,3,3-pentafluoro-propyl)-malonamide]
152	CCN1C(=O)[C@@H](NC(=O)C(C)C(=O)NCC(F)(F)C(F)(F)F)COc2ccccc21 (stereo partly drawn) [Example 14, N-((S)-9-Ethyl-8-oxo-6,7,8,9-tetrahydro-5-oxa-9-aza-benzocyclohepten-7-yl)-2-methyl-N′-(2,2,3,3,3-pentafluoro-propyl)-malonamide]
215 to 216	CC(C(=O)NCC(F)(F)C(F)(F)F)C(=O)N[C@@H]1C(=O)Nc2cc(F)ccc2O[C@@H]1C (stereo partly drawn) [Example 23, N-((6R,7S)-2-Fluoro-6-methyl-8-oxo-6,7,8,9-tetrahydro-5-oxa-9-aza-benzocyclohepten-7-yl)-2-methyl-N′-(2,2,3,3,3-pentafluoro-propyl)-malonamide]
126 to 134	CC(C(=O)NCC(F)(F)C(F)(F)F)C(=O)N[C@@H]1C(=O)N(C)c2c(F)cccc2O[C@@H]1C (stereo partly drawn) [Example 37, N-((6R,7S)-1-Fluoro-6,9-dimethyl-8-oxo-6,7,8,9-tetrahydro-5-oxa-9-aza-benzocyclohepten-7-yl)-2-methyl-N′-(2,2,3,3,3-pentafluoro-propyl)-malonamide]
126 to 134	CC(C(=O)NCC(F)(F)C(F)(F)F)C(=O)N[C@@H]1C(=O)N(C)c2cc(F)ccc2O[C@@H]1C (stereo partly drawn) [Example 38, N-((6R,7S)-2-Fluoro-6,9-dimethyl-8-oxo-6,7,8,9-tetrahydro-5-oxa-9-aza-benzocyclohepten-7-yl)-2-methyl-N′-(2,2,3,3,3-pentafluoro-propyl)-malonamide]
148 to 150	C[C@H](OC(=O)NCC(F)(F)C(F)(F)F)C(=O)N[C@@H]1C(=O)N(C)c2cc(F)ccc2O[C@@H]1C [Example 48, (2,2,3,3,3-Pentafluoro-propyl)-carbamic acid (S)-1-((6R,7S)-2-fluoro-6,9-dimethyl-8-oxo-6,7,8,9-tetrahydro-5-oxa-9-aza-benzocyclohepten-7-ylcarbamoyl)-ethyl ester]
